Reference: the supplement of paper PMC4932681

Assays:
Assay in all cases: viability inhibition at highest dose (% inhibition); higher = more growth inhibition
ZR-75-1 Tam2 = settings: 4-OH-tamoxifen in medium 1 µM; 72 h
Procedure: (§1)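 Percent inhibition of viability (CellTiter-Glo, 72 h) at the highest tested concentration (D5), normalised to DMSO (0%) and 100 µM benzethonium chloride (100%). Resistant lines and the 'in 1µM tamoxifen' arms were tested in 1 µM 4-OH-tamoxifen.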

ZR-75-1 Tam1 = settings: 4-OH-tamoxifen in medium 1 µM; 72 h
Procedure: as §1

BT-474 Tam2 = settings: 4-OH-tamoxifen in medium 1 µM; 72 h
Procedure: as §1

BT-474 Tam1 = settings: 4-OH-tamoxifen in medium 1 µM; 72 h
Procedure: as §1

MCF-7 Tam1 = settings: 4-OH-tamoxifen in medium 1 µM; 72 h
Procedure: as §1

ZR-75-1 = settings: 72 h
Procedure: as §1

BT-474 = settings: 72 h
Procedure: as §1

MCF-7 = settings: 72 h
Procedure: as §1

T-47D Tam2 = settings: 4-OH-tamoxifen in medium 1 µM; 72 h
Procedure: as §1

T-47D = settings: 72 h
Procedure: as §1

T-47D Tam1 = settings: 4-OH-tamoxifen in medium 1 µM; 72 h
Procedure: as §1

Row | Structure (SMILES) | viability inhibition at highest dose (ZR-75-1 Tam2) | viability inhibition at highest dose (ZR-75-1 Tam1) | viability inhibition at highest dose (BT-474 Tam2) | viability inhibition at highest dose (BT-474 Tam1) | viability inhibition at highest dose (MCF-7 Tam1) | viability inhibition at highest dose (ZR-75-1; 4-OH-tamoxifen in medium 0 µM) | viability inhibition at highest dose (ZR-75-1; 4-OH-tamoxifen in medium 1 µM) | viability inhibition at highest dose (BT-474; 4-OH-tamoxifen in medium 0 µM) | viability inhibition at highest dose (BT-474; 4-OH-tamoxifen in medium 1 µM) | viability inhibition at highest dose (MCF-7; 4-OH-tamoxifen in medium 0 µM) | viability inhibition at highest dose (MCF-7; 4-OH-tamoxifen in medium 1 µM) | viability inhibition at highest dose (T-47D Tam2) | viability inhibition at highest dose (T-47D; 4-OH-tamoxifen in medium 0 µM) | viability inhibition at highest dose (T-47D; 4-OH-tamoxifen in medium 1 µM) | viability inhibition at highest dose (T-47D Tam1)
1 | CC(C)C[C@H](NC(=O)[C@@H](COC(C)(C)C)NC(=O)[C@H](Cc1ccc(O)cc1)NC(=O)[C@H](CO)NC(=O)[C@H](Cc1c[nH]c2ccccc12)NC(=O)[C@H](Cc1cnc[nH]1)NC(=O)[C@@H]1CCC(=O)N1)C(=O)N[C@@H](CCCNC(=N)N)C(=O)N1CCC[C@H]1C(=O)NNC(N)=O [Goserelin acetate] (drug 10000 nM) | -3.44 | 3.63 | 3.49 | 4.09 | -8.86 | -9.52 | -3.92 | -9.97 | -17.3 | -35 | 2.51 | 13 | -9.98 | -8.33 | 3.41
2 | Nc1nc(Cl)nc2c1ncn2[C@@H]1O[C@H](CO)[C@@H](O)[C@@H]1F [Clofarabine] (drug 10000 nM) | 22.2 | 23.6 | -3.66 | -21.8 | -1.02 | 21.8 | 14.8 | -7.9 | -34.5 | 32.2 | 10.4 | 27.8 | 35.1 | 43 | 38.6
3 | CC(C)C[C@H](NC(=O)[C@H](Cc1ccccc1)NC(=O)c1cnccn1)B(O)O [Bortezomib] (drug 1000 nM) | 64.6 | 71.5 | 98.7 | 98.8 | 73.6 | 71 | 64 | 62.6 | 97.9 | 74.1 | 92.4 | 96.2 | 94.5 | 93.6 | 97.2
4 | Cc1sc2c(c1C)C(c1ccc(Cl)cc1)=N[C@@H](CC(=O)OC(C)(C)C)c1nnc(C)n1-2 [(+)JQ1] (drug 10000 nM) | 37.8 | 43.3 | 76.6 | 75 | 15.2 | 29.8 | 30.9 | 31.3 | 68.4 | 52.8 | 59.6 | 29.1 | 34.3 | 16.5 | 46.9
5 | Cc1cn(-c2cc(NC(=O)c3ccc(C)c(Nc4nccc(-c5cccnc5)n4)c3)cc(C(F)(F)F)c2)cn1 [Nilotinib] (drug 10000 nM) | -2.53 | 2.47 | 1.02 | 22.9 | -8.69 | -11.8 | -6.98 | -6.7 | 1.42 | 5.79 | 5.88 | 2.08 | -17.5 | -20.8 | -0.169
6 | CC(=O)Nc1ccc(C(=O)Nc2ccccc2N)cc1 [Tacedinaline (CI-994)] (drug 1000 nM) | 6.17 | -0.987 | -4.77 | -4.04 | 0.399 | -0.612 | 5.35 | 1.78 | -3.82 | -10.9 | -11.9 | 15.3 | 0.774 | 11.3 | 6.74
7 | Cn1cnc2c(F)c(Nc3ccc(Br)cc3Cl)c(C(=O)NOCCO)cc21 [Selumetinib  (AZD6244)] (drug 10000 nM) | 3.53 | 2.2 | -2.62 | 21.1 | 11.7 | -8.87 | -4.69 | -0.443 | 29.7 | 13.7 | 16.6 | 10.8 | -3.23 | -12.3 | 19.9
8 | CCc1c(C(=O)C(N)=O)c2c(OCC(=O)O)cccc2n1Cc1ccccc1 [Varespladib] (drug 10000 nM) | -6.3 | -2.44 | -5.77 | -12.8 | -3.81 | -0.701 | -2.07 | 0.192 | -17.3 | 13.3 | -9.89 | -7.24 | -1.77 | -10.9 | -7.33
9 | O=C(Cc1ccc(-c2ccc(OCCN3CCOCC3)cc2)cn1)NCc1ccccc1 [KX2-391] (drug 10000 nM) | 47.8 | 43.1 | 92.2 | 92.7 | 16.8 | 41.1 | 38.6 | 41 | 82.9 | 44.4 | 55.3 | 47.3 | 24.2 | 25.3 | 74.1
10 | Cc1cc2c(F)c(Oc3ncnn4cc(OC[C@@H](C)O)c(C)c34)ccc2[nH]1 [Brivanib] (drug 1000 nM) | 3.72 | -6.33 | 7.57 | 6.47 | -13 | -7.74 | -7.64 | -13 | -17.5 | -12.6 | -7.3 | -3.24 | -14.5 | -3.49 | 2.73
11 | NC1(c2ccc(-c3nc4ccn5c(=O)[nH]nc5c4cc3-c3ccccc3)cc2)CCC1 [MK-2206] (drug 1000 nM) | 63.1 | 60.8 | 21.9 | 47 | 29.1 | 57.1 | 51.6 | 27.6 | 50.8 | 35.1 | 44.8 | 49.9 | 52.4 | 36.6 | 44.5
12 | Cc1ccc(Nc2nccc(N(C)c3ccc4c(C)n(C)nc4c3)n2)cc1S(N)(=O)=O [Pazopanib] (drug 10000 nM) | 10.8 | 6.13 | 7.37 | 23.6 | 1.65 | -3.01 | 11.1 | -2.15 | -6.21 | 8.65 | 16.4 | 23.6 | 12.7 | -6.23 | 4.97
13 | N#CC[C@H](C1CCCC1)n1cc(-c2ncnc3[nH]ccc23)cn1 (drug 10000 nM) | -7.38 | -14.2 | -31.9 | -28.1 | -11.4 | -0.421 | -1.41 | -21.3 | -53.3 | 1.33 | -20.6 | -5.81 | -12.9 | -14.9 | -14.3
14 | CNC(=O)c1cc(Oc2ccc(NC(=O)Nc3ccc(Cl)c(C(F)(F)F)c3)cc2)ccn1 [Sorafenib] (drug 1000 nM) | -2.71 | -2.44 | -4.18 | 12.1 | -2.56 | -7.83 | 4.52 | -8.19 | -5.87 | 4.04 | 5.41 | 4.98 | -13.3 | -7.58 | -11.3
15 | Cn1cncc1[C@@](N)(c1ccc(Cl)cc1)c1ccc2c(c1)c(-c1cccc(Cl)c1)cc(=O)n2C [Tipifarnib  (Zarnestra)] (drug 10000 nM) | 57.7 | 57.6 | 78.5 | 85.4 | 42 | 51 | 50.5 | 42.6 | 77.3 | 64.4 | 77.7 | 44.6 | 28.4 | 14.2 | 55.8
16 | CCc1c2c(nc3ccc(OC(=O)N4CCC(N5CCCCC5)CC4)cc13)-c1cc3c(c(=O)n1C2)COC(=O)[C@]3(O)CC [Irinotecan] (drug 10000 nM) | 44.3 | 35 | -11 | -9.22 | -8.36 | 41.6 | 30 | -20.2 | -25.4 | 23.7 | 23.7 | 23.3 | 42.8 | -0.292 | 34.4
17 | COc1cc2c(N3CCN(C(=O)Nc4ccc(OC(C)C)cc4)CC3)ncnc2cc1OCCCN1CCCCC1 [Tandutinib] (drug 1000 nM) | -7.47 | 1.06 | -13.2 | -0.467 | -14.2 | -10 | -3.58 | -11.4 | -9.77 | -5.26 | -13.7 | 5.77 | -12.3 | -11.9 | -4.68
18 | CN1CCC(COc2cnc(-c3cccc(Cn4nc(-c5cccc(C#N)c5)ccc4=O)c3)nc2)CC1 (drug 1000 nM) | -3.94 | 0.277 | 8.15 | 4.43 | 7.93 | -2.72 | 2.17 | 2.72 | -6.04 | -4.34 | 13.2 | -1.11 | -10.4 | -5.78 | 57.5
19 | C[C@]12C=CC(=O)C=C1CC[C@@H]1[C@@H]2C(=O)C[C@@]2(C)[C@H]1CC[C@]2(O)C(=O)CO [Prednisone] (drug 10000 nM) | 5.99 | -0.823 | -4.01 | 0.805 | -6.7 | -12.2 | -9.15 | -5.13 | -15.9 | 4.17 | -2.57 | 6.96 | -2.36 | -14.5 | 0.12
20 | COc1ccccc1S(=O)(=O)Nc1ccc2c(c1)CN(C)C(=O)N2 [PFI-1] (drug 10000 nM) | 25.8 | 23.8 | 30.3 | 25.7 | 4.98 | 13.1 | 25.2 | 32.8 | 25.7 | 44.2 | 38.1 | 32.8 | 26.2 | 14 | 36.4
21 | COc1cc2nccc(Oc3ccc(NC(=O)Nc4cc(C)on4)c(Cl)c3)c2cc1OC [Tivozanib  (AV-951)] (drug 10000 nM) | 11.2 | 3.78 | 43.4 | 71.8 | 13.2 | 13.6 | 4.79 | 31.9 | 75.6 | 24.5 | 23.7 | 22.1 | 22.3 | 19.7 | 23.7
22 | O=P1(NCCCl)OCCCN1CCCl (stereo not given) [Ifosfamide] (drug 10000 nM) | -4.83 | 2.45 | -0.857 | 2.59 | -4.9 | -8.49 | -7.06 | -8.04 | 1.1 | -17.9 | 17.3 | 1.35 | -16.4 | -8.32 | -0.131
23 | CCCS(=O)(=O)Nc1ccc(F)c(C(=O)c2c[nH]c3ncc(-c4ccc(Cl)cc4)cc23)c1F [Vemurafenib (PLX4032)] (drug 10000 nM) | 0.975 | 8.49 | -15 | -8.2 | 3.76 | -0.616 | 10.2 | -0.692 | 16.2 | 7.54 | -8.65 | 21.7 | -10.9 | 17.5 | -8.15
24 | O=C1CCC(N2C(=O)c3ccccc3C2=O)C(=O)N1 (stereo not given) [Thalidomide] (drug 10000 nM) | -1.28 | 6.53 | 1.4 | 2.81 | 4.57 | 5.91 | 12 | 2.41 | 13.6 | 1.74 | 5.08 | 4.15 | 0.793 | 10.3 | 0.973
25 | CC(=O)O[C@H]1C(=O)[C@@]2(C)[C@H]([C@H](OC(=O)c3ccccc3)[C@]3(O)C[C@H](OC(=O)[C@H](O)[C@@H](NC(=O)c4ccccc4)c4ccccc4)C(C)=C1C3(C)C)[C@]1(OC(C)=O)CO[C@@H]1C[C@@H]2O [Paclitaxel] (drug 1000 nM) | 0.492 | 4.53 | 25.5 | 35.2 | -17.1 | 26.9 | 4.99 | 42.7 | 55.7 | 28.8 | 25.8 | 35.9 | 47 | 15.8 | 26
26 | COc1cc(Nc2ncc(F)c(Nc3ccc4c(n3)NC(=O)C(C)(C)O4)n2)cc(OC)c1OC [Tamatinib (R406)] (drug 10000 nM) | -2.25 | 0.732 | -9.51 | -6.1 | -9.69 | -7.27 | -4.27 | -9.68 | -22.1 | -1.78 | 4.31 | 9.45 | -10 | -10.3 | 14.3
